pKd: −log10 of the molar value. Read-outs that look alike come from different tables or passages of the source.
Key:
LecA (PA-IL) [1] = biological target: T1, LecA (PA-IL) (Pseudomonas aeruginosa, UniProt Q05097); assay: isothermal titration calorimetry; assay type: binding
T1 construct: soluble calcium-dependent homotetramer, one site per monomer
Text: isothermal titration calorimetry on LecA (PA-IL)

LecB (PA-IIL) [2] = biological target: T2, LecB (PA-IIL) (Pseudomonas aeruginosa, UniProt Q9HYN5); assay: isothermal titration calorimetry; assay type: binding
T2 construct: soluble calcium-dependent homotetramer, one site per monomer

LecB (PA-IIL) [3] = biological target: T2, LecB (PA-IIL); assay: yeast agglutination inhibition, microscopy; assay type: biochemical; conditions: LecB 625 μg/ml, yeast cells; complete inhibition
Text: yeast agglutination inhibition, microscopy on LecB (PA-IIL)

LecA (PA-IL) [4] = biological target: T1, LecA (PA-IL); assay: hemagglutination inhibition, microscopy; assay type: biochemical; conditions: LecA 125 μg/ml, group O red blood cells; complete inhibition
Text: hemagglutination inhibition, microscopy on LecA (PA-IL)

T1 sequence (Q05097 2-122): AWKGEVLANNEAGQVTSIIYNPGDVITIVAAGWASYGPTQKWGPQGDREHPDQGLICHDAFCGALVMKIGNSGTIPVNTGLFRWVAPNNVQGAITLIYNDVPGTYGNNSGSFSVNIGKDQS
T2 sequence (Q9HYN5 entry or part of it): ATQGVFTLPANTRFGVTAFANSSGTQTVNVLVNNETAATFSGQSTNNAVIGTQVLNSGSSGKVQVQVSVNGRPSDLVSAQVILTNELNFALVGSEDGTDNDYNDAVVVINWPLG

## OC[C@H]1OC(O)[C@H](O)[C@@H](O)[C@H]1O (stereo partly drawn) [D-Galactose]
LecA (PA-IL) [1]; read-out: LecA / KD, 300 μM lectin, 2 mM ligand, non-sigmoid curve, n apparent
  pKd: 3.76

## C[C@@H]1O[C@@H](S[C@@H]2O[C@H](CO)[C@H](O)[C@H](O)[C@H]2O)[C@@H](O)[C@H](O)[C@@H]1O [compound 14, Thio‐L‐Fuc‐α(1,1)β‐D‐Gal]
LecA (PA-IL) [1]
  pKd: 3.94
LecB (PA-IIL) [2]
  pKd: 6.46

## C[C@@H]1O[C@@H](S[C@@H]2O[C@@H](C)[C@@H](O)[C@@H](O)[C@@H]2O)[C@@H](O)[C@H](O)[C@@H]1O [compound 25, Thio‐L‐Fuc‐α(1,1)α‐L‐Fuc]
LecB (PA-IIL) [3]
  LecB / MIC: 6.10 µM

## C[C@@H]1O[C@@H](S[C@H]2O[C@H](CO)[C@@H](O)[C@H](O)[C@H]2O)[C@@H](O)[C@H](O)[C@@H]1O [compound 26, Thio‐L‐Fuc‐α(1,1)α‐D‐Glc]
LecB (PA-IIL) [3]
  LecB / MIC: 6.10 µM

## C[C@@H]1O[C@@H](S[C@H]2O[C@H](CO)[C@H](O)[C@H](O)[C@H]2O)[C@@H](O)[C@H](O)[C@@H]1O [compound 27, Thio‐L‐Fuc‐α(1,1)α‐D‐Gal]
LecA (PA-IL) [1]
  pKd: 4.25
LecB (PA-IIL) [2]
  pKd: 6.72

## C[C@H]1O[C@H](S[C@H]2O[C@H](CO)[C@H](O)[C@H](O)[C@H]2O)[C@H](O)[C@@H](O)[C@H]1O [compound 28, Thio‐D‐Fuc‐α(1,1)α‐D‐Gal]
LecA (PA-IL) [4]
  LecA / MIC: 390 µM

## OC[C@H]1O[C@H](S[C@H]2O[C@H](CO)[C@H](O)[C@H](O)[C@H]2O)[C@H](O)[C@@H](O)[C@H]1O [compound 29, Thio‐D‐Gal‐α(1,1)α‐D‐Gal]
LecA (PA-IL) [4]
  LecA / MIC: 97.5 µM

## OC[C@H]1O[C@H](S[C@H]2O[C@H](CO)[C@@H](O)[C@H](O)[C@H]2O)[C@H](O)[C@@H](O)[C@H]1O [compound 30, Thio‐D‐Gal‐α(1,1)α‐D‐Glc]
LecA (PA-IL) [4]
  LecA / MIC: 390 µM
